Source: patent publication US8846746B2, “Pyrazole compound and pharmaceutical use thereof” (Japan Tobacco Inc., priority 2011, dated 2014)

Molecular target: human SGLT1 (Homo sapiens (Human), UniProt P13866)
Assay: SGLT1 inhibitory activity: 14C-AMG uptake into CHO-K1 cell line stably expressing human SGLT1
Format: cell-based
Conditions: 14C-AMG uptake, CHO-K1 cells expressing human SGLT1
Procedure, shortened: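 Human SGLT1 was stably expressed in CHO-K1 cells. Cells were first held 20 min in sodium-free buffer, then exposed to compound in Na(+)/BSA buffer with tracer and AMG (2 mM in the added solution).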

human SGLT1, sequence (P13866 whole entry): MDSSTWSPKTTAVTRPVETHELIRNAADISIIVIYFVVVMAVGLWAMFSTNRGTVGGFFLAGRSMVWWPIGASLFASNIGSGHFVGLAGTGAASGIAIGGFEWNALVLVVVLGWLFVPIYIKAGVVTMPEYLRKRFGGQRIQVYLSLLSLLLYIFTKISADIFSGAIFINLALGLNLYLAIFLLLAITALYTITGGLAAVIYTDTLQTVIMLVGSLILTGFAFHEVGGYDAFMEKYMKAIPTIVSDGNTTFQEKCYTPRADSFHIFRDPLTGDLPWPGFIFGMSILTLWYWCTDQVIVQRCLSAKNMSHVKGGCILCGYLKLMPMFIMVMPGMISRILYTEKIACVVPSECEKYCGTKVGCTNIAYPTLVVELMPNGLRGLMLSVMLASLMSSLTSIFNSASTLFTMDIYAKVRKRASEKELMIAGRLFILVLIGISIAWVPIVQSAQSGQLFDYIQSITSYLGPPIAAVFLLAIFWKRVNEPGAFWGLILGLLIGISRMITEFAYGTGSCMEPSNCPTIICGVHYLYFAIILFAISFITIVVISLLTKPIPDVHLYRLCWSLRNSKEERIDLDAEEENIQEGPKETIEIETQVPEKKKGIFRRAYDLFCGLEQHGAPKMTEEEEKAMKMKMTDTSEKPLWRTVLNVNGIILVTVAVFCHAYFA

IC50 [nM]	Structure (SMILES)
3	CCC(F)(F)c1cccc(-c2cc(NC(=O)[C@H]3CNC(=O)[C@@H]3C)nn2-c2cccc(F)c2)c1 [Example 170]
12	C[C@H]1C(=O)NC[C@@H]1C(=O)Nc1cc(-c2cccc(C(F)(F)F)c2)n(-c2ccc(F)cc2)n1 [Example 202]
11	O=C1C[C@@H](C(=O)Nc2cc(-c3cccc(OCCC(F)(F)F)c3)n(-c3ccc(Cl)cc3)n2)CN1 [Example 160]
6.8	CCCc1cccc(-c2cc(NC(=O)[C@H]3CNC(=O)C3)nn2CCC(C)(C)C)c1 [Example 134]
6.8	O=C1C[C@@H](C(=O)Nc2cc(-c3cccc(OC(F)(F)F)c3)n(-c3cccc(Cl)c3)n2)CN1 [Example 106]
1.1	CCC(F)(F)c1cccc(-c2cc(NC(=O)[C@H]3CNC(=O)C3)nn2-c2ccccc2Cl)c1 [Example 140]
220	CC(C)(O)c1cccc(-c2cc(NC(=O)[C@H]3CNC(=O)C3)nn2-c2ccccc2)c1 [Example 80]
41	CCCc1cccc(-c2cc(NC(=O)C3CNC(=O)C3CCO)nn2-c2ccccc2)c1 (racemic) [Example 115]
85	O=C1C[C@@H](C(=O)Nc2cc(-c3cccc(OC(F)(F)F)c3)n(CCc3ccccc3)n2)CN1 [Example 110]
14	O=C1C[C@@H](C(=O)Nc2cc(-c3cccc(C(F)(F)F)c3)n(-c3cccc(F)c3)n2)CN1 [Example 213]
50	O=C1C[C@@H](C(=O)Nc2cc(-c3cccc(OC(F)(F)F)c3)n(C3CCCCCC3)n2)CN1 [Example 85]
6.7	CCCc1cccc(-c2cc(NC(=O)[C@H]3CNC(=O)C3)nn2C2CCCCCC2)c1 [Example 68]
2.6	CCC(F)(F)c1cccc(-c2cc(NC(=O)[C@H]3CNC(=O)C3)nn2-c2cccc(OC)c2)c1 [Example 164]
4.8	Cc1cc(F)ccc1-n1nc(NC(=O)[C@H]2CNC(=O)[C@@H]2C)cc1-c1cccc(OC(F)(F)F)c1 [Example 196]
4.3	CCC(F)(F)c1cccc(-c2cc(NC(=O)[C@H]3CNC(=O)C3)nn2-c2cccc(F)c2)c1 [Example 181]
10	O=C1C[C@@H](C(=O)Nc2cc(-c3cccc(OCC(F)(F)F)c3)n(-c3ccccc3)n2)CN1 [Example 148]
130	O=C1C[C@@H](C(=O)Nc2cc(-c3cccc(Cl)c3)n(-c3ccccc3)n2)CN1 [Example 38]
130	O=C1C[C@@H](C(=O)Nc2cc(-c3cccc(OC(F)(F)F)c3)n(CCC(F)(F)F)n2)CN1 [Example 190]
1.4	C[C@H]1C(=O)NC[C@@H]1C(=O)Nc1cc(-c2cccc(OCC(F)(F)F)c2)n(-c2ccccc2Cl)n1 [Example 215]
31	CCCc1cccc(-c2cc(NC(=O)C3CNC(=O)C3)nn2CC(C)C)c1 (racemic) [Example 18]
19	CCC(F)(F)c1cccc(-c2cc(NC(=O)[C@H]3CNC(=O)C3)nn2C2CCOCC2)c1 [Example 155]
37	O=C1C[C@@H](C(=O)Nc2cc(-c3cccc(OC(F)(F)F)c3)n(-c3ccc(Cl)cc3)n2)CN1 [Example 105]
4400	CCCn1nc(NC(=O)C2CNC(=O)C2)cc1-c1ccccc1 (racemic) [Example 12]
12	CCCc1cccc(-c2cc(NC(=O)[C@H]3CNC(=O)C3)nn2C2CCCC2)c1 [Example 64]
22	O=C1CCC(C(=O)Nc2cc(-c3cccc(OC(F)(F)F)c3)n(-c3ccc(F)cc3)n2)CN1 (single isomer, unassigned) [Example 165]
2.7	Cc1ccccc1-n1nc(NC(=O)[C@H]2CNC(=O)C2)cc1-c1cccc(OC(F)(F)F)c1 [Example 156]
17	O=C1C[C@@H](C(=O)Nc2cc(-c3cccc(OCC(F)(F)F)c3)n(-c3ccc(Cl)cc3)n2)CN1 [Example 159]

Same assay, conditions: 14C-AMG uptake, CHO-K1 cells stably expressing human SGLT1

Structure (SMILES)	IC50 [nM]
CCCc1cccc(-c2cc(NC(=O)[C@@H]3CNC(=O)N3CC)nn2-c2ccccc2)c1 [Example 295]	29
CC(OCc1cccc(-c2cc(NC(=O)[C@H]3CNC(=O)C3)nn2-c2ccccc2)c1)(C(F)(F)F)C(F)(F)F [Example 364]	8.3
C[C@@H](OCc1cccc(-c2cc(NC(=O)[C@H]3CNC(=O)N3)nn2-c2ccccc2)c1)C(F)(F)F [Example 365]	18
C[C@@H](OCc1cc(Cl)cc(-c2cc(NC(=O)[C@@H]3CNC(=O)C3)nn2-c2ccc(F)cc2)c1)C(F)(F)F [Example 242, (S)-5-oxopyrrolidine-3-carboxylic acid{5-[3-chloro-5-((R)-2,2,2-trifluoro-1-methylethoxymethyl)phenyl]-1-(4-fluorophenyl)-1H-pyrazol-3-yl}amide]	9
CC(C)COc1cccc(-c2cc(NC(=O)[C@@H]3CNC(=O)C3)nn2-c2ccccc2)c1 [Example 286]	30
CCCc1cccc(-c2cc(NC(=O)C3CCS(=O)(=O)CC3)nn2-c2ccccc2)c1 [Example 302]	1.5
CCCc1cccc(-c2cc(NC(=O)[C@@H]3CNC(=O)N3CCOC)nn2-c2ccccc2)c1 [Example 345]	7.9
CCCc1cccc(-c2cc(NC(=O)[C@@H]3CNC(=O)C3)nn2-c2ccccc2C(C)C)c1 [Example 359]	39
CCCc1cccc(-c2cc(NC(=O)[C@@H]3CNC(=O)C3)nn2-c2ccc(OC)cc2)c1 [Example 362]	30
O=C(Nc1cc(-c2cccc(COCC(F)(F)F)c2)n(-c2ccccc2)n1)C1CNC(=O)C12CC2 (single isomer, unassigned) [Example 250, 4-oxo-5-azabispiro[2.4]heptane-7-carboxylic acid{1-phenyl-5-[3-(2,2,2-trifluoroethoxymethyl)phenyl]-1H-pyrazol-3-yl}amide]	3.4
CCCc1cccc(-c2cc(NC(=O)[C@@H]3CNC(=O)C3)nn2-c2cccc(C)c2C)c1 [Example 323]	4.8
O=C1C[C@H](C(=O)Nc2cc(-c3cccc(COC(C(F)(F)F)C(F)(F)F)c3)n(-c3ccccc3)n2)CN1 [Example 246, (S)-5-oxopyrrolidine-3-carboxylic acid{1-phenyl-5-[3-(2,2,2-trifluoro-1-trifluoromethylethoxymethyl)phenyl]-1H-pyrazol-3-yl}amide]	11.5
O=C1C[C@H](C(=O)Nc2cc(-c3cccc(OCCC(F)(F)F)c3)n(-c3ccccc3)n2)CN1 [Example 272]	37

Next, values leading:

IC50 [nM]	Structure (SMILES)
4.1	CCOc1cccc(-n2nc(NC(=O)[C@@H]3CNC(=O)C3)cc2-c2cccc(CO[C@H](C)C(F)(F)F)c2)c1F [Example 485]
1.7	COCCOc1ccc(F)c(-n2nc(NC(=O)[C@@H]3CNC(=O)C3)cc2-c2cccc(CO[C@H](C)C(F)(F)F)c2)c1 [Example 465]
13	O=C1C[C@H](C(=O)Nc2cc(-c3cc(F)cc(COC(C(F)(F)F)C(F)(F)F)c3)n(-c3ccccc3)n2)CN1 [Example 585]
8	CCCc1cccc(-c2cc(NC(=O)[C@@H]3CNC(=O)C3)nn2-c2cccc(OCCO)c2)c1 [Example 408]
7.7	C[C@H]1C(=O)NC[C@@H]1C(=O)Nc1cc(-c2cccc(COCC(F)(F)F)c2)n(-c2ccccc2)n1 [Example 559]
6.35	CCCc1cccc(-c2cc(NC(=O)[C@@H]3CNC(=O)C3)nn2-c2ccc(OCc3ccccc3)cc2)c1 [Example 370]
7.3	O=C1C[C@H](C(=O)Nc2cc(-c3cccc(COCC(F)(F)F)c3)n(-c3ccccc3Cl)n2)CN1 [Example 474]
11.4	CCCc1cccc(-c2cc(NC(=O)[C@@H]3CNC(=O)C3)nn2-c2ccc(F)c(OCCOC)c2)c1 [Example 414]
35	CCCc1cccc(-c2cc(NC(=O)[C@@H]3CNC(=O)C3)nn2-c2ccc(OC(F)(F)F)cc2)c1 [Example 386]
2.3	CC(C)Oc1cc(F)cc(-n2nc(NC(=O)[C@@H]3CNC(=O)C3)cc2-c2cccc(COCC(F)(F)F)c2)c1 [Example 529]
7.6	CC(C)(OCc1cc(F)cc(-c2cc(NC(=O)[C@@H]3CNC(=O)C3)nn2-c2ccc(Cl)cc2)c1)C(F)(F)F [Example 580]
2.15	COc1ccc(F)c(-n2nc(NC(=O)[C@@H]3CNC(=O)C3)cc2-c2cccc(CO[C@H](C)C(F)(F)F)c2)c1 [Example 523]
8.8	CCCc1cccc(-c2cc(NC(=O)[C@@H]3CNC(=O)C3)nn2-c2ccc(OCCC(F)(F)F)cc2)c1 [Example 374]
5.35	CCCc1cccc(-c2cc(NC(=O)[C@@H]3CNC(=O)C3)nn2-c2cccc(OC(=O)OC(C)(C)C)c2)c1 [Example 388]
6.7	CC(C)Oc1cccc(-n2nc(NC(=O)[C@@H]3CNC(=O)C3)cc2-c2cccc(OC(F)(F)F)c2)c1 [Example 445]
14	CC(C)Oc1cc(-n2nc(NC(=O)[C@@H]3CNC(=O)C3)cc2-c2cccc(OC(F)(F)F)c2)ccc1F [Example 422]
16	CCCOc1cc(-n2nc(NC(=O)[C@@H]3CNC(=O)C3)cc2-c2cccc(OC(F)(F)F)c2)ccc1F [Example 423]
3.4	COCCOc1ccc(F)c(-n2nc(NC(=O)[C@@H]3CNC(=O)C3)cc2-c2cccc(COCC(F)(F)F)c2)c1 [Example 462]

Same assay, conditions: CHO-K1, at 0.1 uM

inhibition at 0.1 µM [%]	Structure (SMILES)
46	COCCOc1cccc(-n2nc(NC(=O)[C@@H]3CNC(=O)C3)cc2-c2cccc(OC(F)(F)F)c2)c1F [Example 479]
45	O=C1C[C@H](C(=O)Nc2cc(-c3cccc(OC(F)(F)F)c3)n(-c3cccc(O)c3)n2)CN1 [Example 439]
1	O=C1C[C@H](C(=O)Nc2cc(-c3cccc(CO[C@H]4CCOC4)c3)n(-c3ccccc3)n2)CN1 [Example 537]
33	O=C1C[C@H](C(=O)Nc2cc(-c3cccc(CO[C@@H]4CCCOC4)c3)n(-c3ccccc3)n2)CN1 [Example 538]
8	CCCN(C)C(=O)c1cccc(-c2cc(NC(=O)[C@@H]3CNC(=O)C3)nn2-c2ccccc2)c1 [Example 430]

Same assay, conditions: CHO-K1, at 0.3 uM

inhibition at 0.3 µM [%]	Structure (SMILES)
6	O=C1C[C@@H](C(=O)Nc2cc(-c3cccc(OC(F)(F)F)c3)n(-c3ccc(F)cc3Cl)n2)CN1 [Example 192]
